Test results from US9457045B2, “Combination of anti-clusterin oligonucleotide with Hsp90 inhibitor for the treatment of prostate cancer” (The University of British Columbia, priority 2011, dated 2016).
Read-outs that look alike come from different tables or passages of the source. In the oligonucleotide strings, read from the 5' end, every base follows the letter of its sugar. An asterisk marks phosphorothioate; unmarked linkages are phosphodiester. Other units and linkages are bracketed, terminal groups are in braces. A string of capitals states the bases alone. e = 2'-O-(2-methoxyethyl) (MOE); [5mC] = 5-methylcytosine; d = 2'-deoxy (DNA)

Assays:
HSF-1 = test: HSE-luciferase assay of HSF-1 activity; format: cell-based, human
Procedure: FIG. 3. CLU induction following Hsp90 inhibitor treatment is cytoprotective via an increase of HSF-1 activity. A, LNCaP cells were treated with indicated concentrations of Hsp90i-1 or Hsp90i-2 for 48 h. B, LNCaP cells were transiently transfected with indicated concentrations of CLU-plasmid for 48 h. Total amount of plasmid DNA transfected was normalized to 2 μg per well by the addition of an empty vector. C (Top), LNCaP cells were transfected with 20 nM CLU siRNA or control siScr, followed of Hsp90i-1 or Hsp90i-2 treatment (1 μM) for 48 h. C (bottom), LNCaP cells were treated twice with 300 nM custirsen or control ScrB ASO. D, LNCaP and PC-3 cells were treated twice with 300 nM custirsen or control ScrB ASO, followed by 1 μM of Hsp90i-1 or Hsp90i-2 for 48 h. Cells were harvested, and HSE-luciferase activity or western blotting analyses were performed. Means of at least three independent experiments done in triplicate. ***, p<0.001; *, p<0.05; ns, not significant.
LNCaP and C4-2 cells (2.5×10^5) were plated on six-plates and transfected using lipofectin (6 μL per well; Invitrogen Life Technologies, Inc.). The total amount HSE plasmids DNA used were normalized to 1 μg per well by the addition of a control plasmid. One μM HSP90i-2 or Hsp90i-1 was added 4 h after the transfection and for 48 h. HSE-luciferase activity was measured using Dual-Luciferase Reporter Assay System (Promega) with the aid of a microplate luminometer (EG&G Berthold). All experiments were carried out in triplicate wells and repeated 3 times using different preparations of plasmids.

[1] = 60 mg/kg/day (Glaze et al., 2005); cited from earlier work
CLU [2] = test: CLU expression in CRPC LNCaP xenografts (immunohistochemistry and western blot); format: in vivo, mice; settings: 50 mg/kg Hsp90i-2-PRO for 6 weeks
Procedure: (§1) FIG. 2. Hsp90i-2 induces HSP and CLU expression in PCa xenografts. Mice were treated for 6 weeks with 50 mg/kg Hsp90i-2-PRO (the prodrug of Hsp90i-2) or vehicle (Control). A, tumors were collected and CLU and Hsp70 were evaluated by immunohistochemical analysis. B, total proteins were extracted from the xenograft tumors and CLU expression was analyzed by western blotting. The relative levels were normalized with GAPDH and estimated in densitometric units. ***, p<0.001.
(§2) Male athymic nude mice (Harlan Sprague-Dawley, Inc.) were injected s.c. with 2×10^6 LNCaP cells (suspended in 0.1 mL Matrigel; BD Biosciences). The mice were castrated once tumors reach between 300 and 500 mm^3 or the PSA level increased above 50 ng/mL. Once tumors progressed to castrate resistance, mice were randomly assigned to vehicle, Hsp90i-2-PRO alone, Hsp90i-2-PRO+ScrB ASO or Hsp90i-2-PRO+custirsen. […] Tumor volume was measured twice weekly (length×width×depth×0.5432). Serum PSA was determined weekly by enzymatic immunoassay (Abbott IMX, Montreal, Quebec, Canada). PSA doubling time (PSAdt) and velocity were calculated by the log-slope method (PSAt=PSAinitial×emt). Data points were expressed as average tumor volume±SEM or average PSA concentration±SEM. […]

Hsp70 = Hsp70 expression in CRPC LNCaP xenografts (immunohistochemistry); format: in vivo, mice; settings: 50 mg/kg Hsp90i-2-PRO for 6 weeks
Procedure: as §1, §2

[3] = system: castrate resistant LNCaP tumors; test: Castrate resistant LNCaP xenograft model; format: in vivo; settings: for tumor volume: Hsp90i-2-PRO 25 mg/kg oral, ASO 15 mg/kg i.p.
Procedure: FIG. 6. […] Mice were treated with 25 mg/kg Hsp90i-2-PRO and 15 mg/kg custirsen starting when serum PSA values relapsed to pre-castration levels. […] Progression-free survival was defined as time for the first tumor volume doubling.
FIG. 7. […] A, tumors were collected after 57 days and CLU, Ki67, AR, AKT and TUNEL were evaluated by immunohistochemical analysis (original magnification: ×200). B, total proteins were extracted from the xenograft tumors and CLU, AR, Akt and PSA were analyzed by western blotting. The relative levels were normalized with vinculin and estimated in densitometric units±SEM.
Male athymic nude mice (Harlan Sprague-Dawley, Inc.) were injected s.c. with 2×10^6 LNCaP cells (suspended in 0.1 mL Matrigel; BD Biosciences). The mice were castrated once tumors reach between 300 and 500 mm^3 or the PSA level increased above 50 ng/mL. Once tumors progressed to castrate resistance, mice were randomly assigned to vehicle, Hsp90i-2-PRO alone, Hsp90i-2-PRO+ScrB ASO or Hsp90i-2-PRO+custirsen. Hsp90i-2-PRO (Prodrug, 25 mg/kg; formulation in 0.5% CMC+0.5% Tween-80) is orally administered three times per week and custirsen or ScrB ASO (15 mg/kg) was injected intra-peritoneally once daily for the first week and then three times per week. Each experimental group consisted of 10 mice. Tumor volume was measured twice weekly (length×width×depth×0.5432). Serum PSA was determined weekly by enzymatic immunoassay (Abbott IMX, Montreal, Quebec, Canada). PSA doubling time (PSAdt) and velocity were calculated by the log-slope method (PSAt=PSAinitial×emt). Data points were expressed as average tumor volume±SEM or average PSA concentration±SEM.
When tumor volume reached 10% of body weight, mice were sacrificed and tumors harvested for evaluation of protein expression by western blotting analyses and immunohistochemistry. All animal procedures were performed according to the guidelines of the Canadian Council on Animal Care and appropriate institutional certification.
Immunohistochemical stains were performed on formalin-fixed and paraffin-embedded 4 μm sections of tumor samples using adequate primary antibody, and the Ventana autostainer Discover XT (Ventana Medical System) with enzyme labeled biotin streptavidin system and solvent resistant 3,3′-diaminobenyidine Map kit. All comparisons of staining intensities were made at 200× magnifications.

[4] = Toxicity of Hsp90 inhibitor monotherapy; format: in vivo; settings: 50 mg/kg/day
[5] = system: castrate resistant LNCaP tumors; settings: 50 mg/kg monotherapy, previous study (Lamoureux et al., 2011); cited from earlier work
LNCaP cells = test: Apoptosis assays: propidium iodide flow cytometry (subG1) and western blotting; format: cell-based, human; settings: 300 nM custirsen or ScrB twice, then 1 μM Hsp90 inhibitor
Procedure: FIG. 4. Increased potency of CLU knockdown and Hsp90 inhibitor combination treatment in PCa cells. A, LNCaP cells were treated twice with 300 nM custirsen or control ScrB ASO, followed by the indicated concentration of Hsp90i-1 or Hsp90i-2 for 48 h. Cell growth was determined by crystal violet and compared with control. B, dose dependent effects and combination index (CI) values calculated by CalcuSyn software were assessed in LNCap cells treated for 48 h with custirsen alone, Hsp90i-2 alone or combined treatment at indicated concentration with constant ratio design between both drugs. […] C and D, LNCaP cells were treated twice with 300 nM custirsen or control ScrB, followed by 1 μM Hsp90i-1 or Hsp90i-2 for 48 h. […] The proportion of cells in subG1, G0-G1, S, G2-M was determined by propidium iodide staining and caspase-3 activity was determined on the cell lysates and the results are expressed in arbitrary units and corrected for protein content (D). […]
Prostate cells lines were plated in appropriate media (DMEM or RPMI) with 5% FBS and treated with Hsp90i-2-PRO or Hsp90i-1 at indicated concentration and time and cell growth was measured using the crystal violet assay as described previously (Leung et al., 2000). Detection and quantitation of apoptotic cells were done by flow-cytometry (described below) and western blotting analysis. […]

CLU [6] = settings: Phase II studies (Chi et al., 2005); cited from earlier work
[7] = LNCaP cells, Hsp90 inhibitor at indicated concentrations 48 h, dose-dependent

## C=CCNC1=C2C[C@@H](C)C[C@H](OC)[C@H](O)[C@@H](C)/C=C(\C)[C@H](OC(N)=O)[C@@H](OC)/C=C\C=C(/C)C(=O)NC(=CC1=O)C2=O [Hsp90i-1, 17-allylamino-17-demethoxygeldanamycin]
HSF-1; [7]
  HSF-1 activity: significantly induced
[1]
  toxicity as monotherapy: hepatotoxicity

## CC1(C)CC(=O)c2c(C(F)(F)F)nn(-c3ccc(C(N)=O)c(NC4CCC(OC(=O)CN)CC4)c3)c2C1 (centres unmarked) [Hsp90i-2-PRO]
CLU [2]
  CLU expression increase compared with vehicle treated tumor: 4 fold
Hsp70
  Hsp70 increase compared with vehicle treated tumor: 2.3 fold
[3]; 7 weeks post treatment
  tumor volume: 2483.6 mm^3
[3]; at 10 days
  tumor volume: 646.4 mm^3
[3]; by day 57
  overall survival: all mice died or were euthanized
[3]; serum, after 42 days
  mean PSA level: 527 ng/mL
[3]; sub-therapeutic dose of 25 mg/kg/day HSP90i-2-PRO
  tumor volume / tumor progression: marginal, non-significant decreases
[3]; sub-therapeutic dose of 25 mg/kg/day, monotherapy
  effect on serum PSA levels: no effect
[4]
  toxicity as monotherapy: body weight loss
[5]
  LNCaP CRPC tumor progression: inhibited

## custirsen: antisense oligonucleotide reducing clusterin expression, CAGCAGCAGAGTCTTCATCAT (SEQ ID NO: 3), phosphorothioate backbone, 2′-O-methoxyethyl wings (antisense e[5mC]*eA*eG*e[5mC]*dA*dG*dC*dA*dG*dA*dG*dT*dC*dT*dT*dC*dA*eT*e[5mC]*eA*eT; listed as Homo sapiens)
HSF-1; LNCaP cells treated twice with 300 nM custirsen vs control ScrB ASO
  HSF-1 activity: significantly decreased
LNCaP cells
  apoptotic rates (subG1 fraction): 17.4%
CLU [6]
  inhibition of CLU in human prostate cancer tissues: > 90%

## control ScrB ASO: scrambled control oligonucleotide with 2′-O-(2-methoxy)ethyl modification, 5′-CAGCGCTGACAACAGTTTCAT-3′ (SEQ ID NO: 44) (2'-O-methoxyethyl modified, pattern not given here)
LNCaP cells
  apoptotic rates (subG1 fraction): 4.2%

## CC1(C)CC(=O)c2c(C(F)(F)F)nn(-c3ccc(C(N)=O)c(NC4CCC(O)CC4)c3)c2C1 (centres unmarked) [Hsp90i-2, 4-(6,6-Dimethyl-4-oxo-3-trifluoromethyl-4,5,6,7-tetrahydro-indazol-1-yl)-2-(4-hydroxy-cyclohexylamino)-benzamide]
HSF-1; [7]
  HSF-1 activity: significantly induced
